Test results: patent publication US9775844B2, “Heterocyclic compounds and uses thereof” (Infinity Pharmaceuticals, Inc., priority 2014, dated 2017)

Assays:
[1] = Hepatocyte stability (Hep t1/2); type: in vitro ADME; settings: hepatocytes, all species (incl rat); read-out: M, C, D, H Hep (t1/2, min)
[2] = tested on: Farage cell line; assay: Combination isobologram in Farage cell line; type: cell-based; settings: combination of Compound AA and Compound BB
[3] = tested on: KPC Pancreatic Cancer cells; assay: RNA expression profiling (TLDA) of KPC pancreatic cancer tumors; type: in vivo, mouse
Protocol: RNA expression profiling was performed for immuno-phenotyping with a Taqman low density array (TLDA).
For mouse tumors, snap frozen samples were powdered with a Genogrinder at liquid nitrogen temperatures and RNA was isolated with Trizol. Next, the sample was cleaned-up using Qiashredder, and then using a RNeasy kit.
CT values were used for analysis. For each sample Si and each gene, the following values were calculated: dCT(Si,gene)=CT(Si,gene)−CT(Si,ACTB) ddCT(Si,gene)=dCT(Si,gene)−median(dCT(vehicle treated samples, gene)) RQ(Si, gene)=2^(−ddCT(Si,gene))
This produced a matrix of RQ values: 48 genes (rows)×39 samples (cols).
The analysis used R package Non-negative Matrix Factorization (NMF) with rank=3 and the “lee” algorithm.

[4] = biological target: PGP (Homo sapiens (Human), UniProt P08183); assay: PGP efflux; type: in vitro ADME
PGP, sequence (P08183 whole entry, species assumed): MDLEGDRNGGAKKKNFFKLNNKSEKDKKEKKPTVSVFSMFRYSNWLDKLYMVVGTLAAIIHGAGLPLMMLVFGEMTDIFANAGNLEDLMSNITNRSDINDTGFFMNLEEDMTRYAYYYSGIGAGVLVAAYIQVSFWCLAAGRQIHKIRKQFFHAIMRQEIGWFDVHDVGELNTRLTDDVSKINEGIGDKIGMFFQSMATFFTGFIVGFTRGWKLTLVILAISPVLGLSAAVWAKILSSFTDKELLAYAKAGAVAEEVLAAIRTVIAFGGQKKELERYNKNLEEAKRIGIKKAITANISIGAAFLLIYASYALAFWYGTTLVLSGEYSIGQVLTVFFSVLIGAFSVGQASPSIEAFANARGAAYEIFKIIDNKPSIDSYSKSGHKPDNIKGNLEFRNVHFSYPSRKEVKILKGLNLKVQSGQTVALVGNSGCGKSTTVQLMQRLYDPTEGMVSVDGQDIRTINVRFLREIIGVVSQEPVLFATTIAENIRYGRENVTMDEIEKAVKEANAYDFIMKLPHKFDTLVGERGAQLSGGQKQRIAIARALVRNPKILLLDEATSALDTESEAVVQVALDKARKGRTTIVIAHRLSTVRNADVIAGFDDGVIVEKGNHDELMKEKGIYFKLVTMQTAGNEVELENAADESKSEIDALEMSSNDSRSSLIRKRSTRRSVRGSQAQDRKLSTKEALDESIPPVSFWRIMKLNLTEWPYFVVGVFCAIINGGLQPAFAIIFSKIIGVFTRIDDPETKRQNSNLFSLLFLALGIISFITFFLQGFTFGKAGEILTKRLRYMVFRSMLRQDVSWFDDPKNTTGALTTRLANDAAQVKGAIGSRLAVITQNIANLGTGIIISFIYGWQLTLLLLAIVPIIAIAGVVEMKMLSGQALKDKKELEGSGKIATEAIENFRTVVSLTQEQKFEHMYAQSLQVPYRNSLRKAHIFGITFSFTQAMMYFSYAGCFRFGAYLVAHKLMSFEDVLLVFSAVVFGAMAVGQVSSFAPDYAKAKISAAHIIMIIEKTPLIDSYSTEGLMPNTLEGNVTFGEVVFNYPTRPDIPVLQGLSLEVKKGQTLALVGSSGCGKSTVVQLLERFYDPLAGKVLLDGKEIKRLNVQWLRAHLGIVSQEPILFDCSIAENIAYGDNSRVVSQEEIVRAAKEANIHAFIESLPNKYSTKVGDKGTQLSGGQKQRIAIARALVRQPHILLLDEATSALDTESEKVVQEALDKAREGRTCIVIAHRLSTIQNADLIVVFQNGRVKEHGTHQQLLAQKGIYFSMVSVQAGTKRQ

[5] = tested on: tumor; assay: Tumor growth, Compound BB alone and co-administered with 5-FU (FIG. 35); type: in vivo
[6] = tested on: Myeloid Derived Suppressor Cell; assay: Myeloid Derived Suppressor Cell differentiation assay; type: cell-based; settings: MDSC differentiation assay
[7] = Cellular membrane permeability; type: in vitro ADME
Text: These properties indicate the compound's suitability for in vivo administration.

[8] = tested on: MC38 tumor cells; assay: MC38 colon cancer model; type: in vivo, mouse
Protocol: In this model, a syngeneic colon cancer cell line is run subcutaneously. The experimental setup was as follows.
The cell injection volume was 0.05 ml per mouse. When tumors reached an average size of 80-100 mm^3, a pair match was made and treatment began. The tumor was measured by caliper biweekly.
The dosing volume was 5 mL/kg.
For all animals, blood was collected by terminal cardiac puncture under isoflurane anesthesia. The blood was processed for plasma. In addition, tumor samples were collected.
At study end, tumors were isolated, fixed in 10% neutral buffered formalin and embedded in paraffin for histologic analysis. […] T-cells within the tumor sections were identified utilizing a CD3-specific antibody via automated immunohistochemistry equipment (Ventana). Once stained, slides were digitalized via Aperio slide scanning equipment. Next, stained tumor sections were quantified via Definians software to assess the percentage of CD3 positive cells within each tumor.

[9] = tested on: CXCL12-induced pAKT in T-cells; assay: CXCL12-induced pAKT assay in T-cells; type: cell-based, human; settings: FIG. 9
Text: There was a tight correlation between the EC50s observed in the CXCL12-induced pAKT assay and the T-cell migration assay.

[10] = tested on: LLC tumor brei; assay: Lewis Lung Carcinoma (LLC tumor brei) model; type: in vivo, mouse; settings: single agent, FIG. 25A/25B
Protocol: Compound BB was tested in the Lewis Lung Carcinoma model, which is known in the art and briefly described hereinabove.
LLC tumor brei model was prepared and injected subcutaneously into a mouse in the hind flank region. The tumor brei was prepared as follows. LL2-Luc tumor cells were grown in culture in DMEM+10% FBS. Cells were implanted @ 1×10^6 cells/100 uL SC in the flank of C57 Albino mice (male) When tumors reached 1000 mm3, tumors were harvested. Only the white, living tissue was harvested. Any material containing visable blood or necrotic area was isolated away from the tumor tissue. Tumor tissue was placed in a Dounce tissue homoginized with 5 mLs of warm DMEM (no FBS). About 1-2 grams of tumor tissue was collected, homogenized, pooled into 50 mL falcon tube, and cells were counted. Cells were spinned @ 12,000 RPM, and FBS was pooled off. Cells were resuspended to equal 1×10^7 cells/mL with sterile PBS. 100 uL of cells/mouse SC at the hind flank region were implanted. This process was repeated one more time before conducting brei tumor efficacy study.

[11] = tested on: phospho-AKT in monocytes; assay: Ex vivo whole blood stimulation of phospho-AKT in monocytes of LLC-bearing mice; settings: LLC-bearing mice treated with compound
[12] = tested on: suppression of spleen T cell proliferation by CT26 tumor cells; assay: Ex vivo T cell proliferation assay with CT26 tumor cells (CFSE); type: cell-based, mouse; settings: tumors from treated mice
Protocol: The duration of the study was 1 week under treatment. 5-6 week old female, Balb/c mice (Jackson Labs) implanted subcutaneously with 5×10^5 CT26 cells in 100 μl PBS. CT26 cells were cultured in RPMI supplemented with 10% FBS. Dosing commenced when tumors reached an average volume of 500-600 mm^3
For group 3 (αPD-L1), the mice were dosed once, IP, 200 ug (200 uL from 1 mg/ml stock).
Mice were monitored daily for adverse clinical effects. Body weights and tumor luminescent were measured two times per week. At the end of the study, tumors were harvested and cut into 3 parts; one piece for CTL killing assay, one piece for CSFE proliferation assay and one piece (split into two) for OCT/FFPE.
Spleens from 3 vehicle treated tumor bearing mice were physically dissociated in T cell media and passed through a 70 micron filter. After red cell lysis, the cells were pooled, brought up in PBS and stained with CFSE (invitrogen). After washing, these cells were brought up in 20 ml T cell media. Half the cells received Dynal mouse activator beads (CD3/CD28 crosslinking at a 1:1 […]). CD3/CD28 beads induce proliferation in splenocytes from tumor bearing mouse (data not shown).
The cells were treated with red cell lysis buffer, washed, and re-suspended in 10 ml T cell media. 2 mls of the each tumor cell suspension were plated into each of two 12 well plates. […]

[13] = tested on: GL261-Luc; assay: GL261-Luc murine glioblastoma subcutaneous model; type: in vivo, mouse; settings: 15 mg/kg QD, PO
[14] = In vitro toxicology studies
[15] = tested on: spleen T cell proliferation; assay: Ex vivo T-cell proliferation assay with tumor-derived cells from treated mice; type: in vivo
[16] = Pharmacokinetics in dog, oral; type: in vivo; settings: 5 mg/kg oral
Text: Compound BB's oral exposure is high in rat, dog and monkey. Good oral bioavailability and low clearance in rodent and non-rodent animal species results in high oral exposure.

[17] = Stability in simulated gastric fluid; type: physicochemical; settings: 38°
Text: The phyiscochemical properties of Compound BB are drug-like, and suitable for use of the compound as a drug.

[18] = tested on: human T cells; assay: Concanavalin A-induced model for activation of human T cells (IFN-γ); type: cell-based; settings: at isoform selective concentrations
[19] = Plasma protein binding; type: in vitro ADME; settings: all species, read-out: PPB % free @ 1 uM

## C[C@H](NC(=O)c1c(N)nn2cccnc12)c1cc2cccc(C#Cc3cnn(C)c3)c2c(=O)n1-c1ccccc1 [Compound BB]
[1]
  half-life: > 240 min
[2]
  combination effect (isobologram): synergistic effect
[3]; 3 mg/kg, with or without PDL-1 antibody
  M2 macrophage markers VEGF and ARG-1 (RNA): trended towards reduction
[3]; alone
  T regulatory and T effector genes (RNA): trend in lower T regulatory and T effector genes
[4]
  PGP efflux@ 10 uM: No
[5]; Compound BB alone
  tumor growth: achieves a reduction in tumor growth
[5]; co-administration of Compound BB and 5-FU
  tumor growth: achieves a further reduction
[6]
  ARG1: suppresses
  VEGF: suppresses
[7]
  cellular membrane permeability: high cellular membrane permeability
[7]; 10 uM
  Papp [10−6 cm/s] @ 10 uM: High
[8]; MC38 tumors vs vehicle, IHC
  intratumoral CD3+ T cells: significantly more intratumoral CD3+T cells
[8]; monotherapy, FIG. 29A
  tumor growth, MC38 colon cancer model: significantly inhibited tumor growth
[9]
  inhibition of CXCL12-induced pAKT in T-cells: inhibited CXCL12-induced pAKT in T-cells more strongly
[10]
  tumor growth, Lewis Lung Carcinoma model: single agent activity
[11]
  ex vivo whole blood stimulation of phospho-AKT in monocytes: inhibits
[12]
  suppression of T cell proliferation by cells derived from CT26 mouse tumors: can release the suppression
[13]
  total flux, GL-261 syngeneic glioma model: reduced the total flux
  tumor volume, GL-261 syngeneic glioma model: reduced tumor volume
[14]
  toxicity expected from in vitro toxicology studies: very low toxicity
[15]; compared to tumor derived cells from vehicle treated mice
  inhibition of spleen T cell proliferation by cells isolated from tumors of treated mice: less inhibitory of spleen T cell proliferation
[15]; ex vivo T-cell proliferation assay
  immune suppressive environment: reduces immune suppressive environment
[16]
  oral exposure (plasma concentrations within 24 hours): high
[17]
  stability in simulated gastric fluid: > 4 h
[18]
  effect on IFN-γ: little to no effect
[19]
  fraction unbound at 1 uM: 0.01 to 0.05
